Experimental data: patent US12187709B2 (Genentech, Inc., priority 2021, dated 2025)
pIC50: −log10 of the molar value.

How the values were obtained:
Cbl-b = Cbl-b (Homo sapiens (Human), UniProt Q13191); assay: Cbl-b LCK Ub TR-FRET assay (Cbl-b Lck HTRF); assay type: biochemical; settings: for pIC50: Cbl-b LCK Ub TR-FRET; for fold-selectivity (Cbl-b over C-cbl) / (fold-selectivity) Cbl-b and C-Cbl Selectivity: ratio C-cbl Lck HTRF IC50 / Cbl-b Lck HTRF IC50
Experimental: (§1) 6 μL of detection mixture was added to all wells and briefly centrifuged before incubating for 20 min at room temperature. […] IC50 was generated using no LCK as the low control and DMSO as the high control.

c-Cbl = c-Cbl (Homo sapiens (Human), UniProt P22681); assay: C-Cbl LCK Ub TR-FRET assay (C-cbl Lck HTRF); assay type: biochemical
Experimental: as §1

Chain of c-Cbl (P22681 47-435): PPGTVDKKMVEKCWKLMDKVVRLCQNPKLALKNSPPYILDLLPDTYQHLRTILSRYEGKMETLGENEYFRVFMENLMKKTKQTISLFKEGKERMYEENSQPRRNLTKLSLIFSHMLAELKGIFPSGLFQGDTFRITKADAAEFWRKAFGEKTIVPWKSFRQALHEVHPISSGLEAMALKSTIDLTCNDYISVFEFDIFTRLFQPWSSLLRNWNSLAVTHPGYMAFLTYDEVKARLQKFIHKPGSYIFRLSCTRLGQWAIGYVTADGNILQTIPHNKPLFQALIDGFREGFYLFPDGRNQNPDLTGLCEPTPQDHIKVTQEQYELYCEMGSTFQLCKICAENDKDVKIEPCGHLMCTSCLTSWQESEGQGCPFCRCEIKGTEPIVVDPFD
Chain of Cbl-b (Q13191 40-426): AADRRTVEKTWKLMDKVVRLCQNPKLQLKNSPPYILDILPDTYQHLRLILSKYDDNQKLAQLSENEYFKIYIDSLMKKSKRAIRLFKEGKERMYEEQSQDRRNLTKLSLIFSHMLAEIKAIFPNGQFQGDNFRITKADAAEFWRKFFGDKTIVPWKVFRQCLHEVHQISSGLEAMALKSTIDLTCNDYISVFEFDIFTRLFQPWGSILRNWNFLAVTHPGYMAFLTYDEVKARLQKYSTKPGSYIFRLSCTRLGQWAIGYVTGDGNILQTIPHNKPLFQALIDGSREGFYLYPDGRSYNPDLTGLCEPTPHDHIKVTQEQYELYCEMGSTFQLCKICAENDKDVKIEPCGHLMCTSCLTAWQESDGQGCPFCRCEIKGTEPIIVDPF

pIC50 (Cbl-b) | fold-selectivity (Cbl-b over C-cbl) (Cbl-b) | pIC50 (c-Cbl) | pIC50 (Cbl-b; Example 121) | (fold-selectivity) Cbl-b and C-Cbl Selectivity (Cbl-b) [x] | SMILES
5.04 | 1.4x | 4.89 | – | – | Cn1cnnc1[C@H](CC1CCOCC1)c1cccc(N2Cc3c(cc(CNC4(C)CCC4)cc3C(F)(F)F)C2=O)c1 (single isomer, unassigned) [Compound 252]
5.10 | 2.0x | 4.80 | – | – | Cn1cnnc1[C@@H](C[C@@H]1COCCO1)c1cccc(N2Cc3c(cc(CNC4(C)CCC4)cc3C(F)(F)F)C2=O)c1 [Compound 296, 2-(3-((S)-2-((R)-1,4-dioxan-2-yl)-1-(4-methyl-4H-1,2,4-triazol-3-yl)ethyl)phenyl)-6-(((1-methylcyclobutyl)amino)methyl)-4-(trifluoromethyl)isoindolin-1-one]
5.02 | 2.1x | 4.70 | – | – | Cn1ccnc1[C@H](c1cccc(N2Cc3c(cc(CNC4(C)CCC4)cc3C(F)(F)F)C2=O)c1)C1COC1 (single isomer, unassigned) [Compound 353]
6.82 | 13x | 5.70 | – | – | Cn1cnnc1C(c1cccc(N2Cc3c(cc(CNC4(C)CCC4)cc3C(F)(F)F)C2=O)c1)[C@H]1C[C@H](Cl)C1 (single isomer, unassigned) [Compound 355]
– | – | 8.35 | 8.28 | 0.85 | Cn1cnnc1[C@@H](c1cccc(N2Cc3c(cc(CN[C@@H]4C[C@@H]5C[C@@H]5C4)cc3C(F)(F)F)C2=O)c1)C1COC1 (single isomer, unassigned) [Compound 469]
5.74 | 2.6x | 5.37 | – | – | Cn1cnnc1[C@H](c1cccc(N2Cc3c(Cl)cc(CNC4(C)CCC4)cc3C2=O)c1)C1COC1 (single isomer, unassigned) [Compound 271]
6.82 | (4.8x) | 6.14 | – | – | Cn1cnnc1[C@@H](c1cccc(N2Cc3c(cc(CNC4(C)CCC4)cc3C(F)(F)F)C2=O)c1)N1CCC1 (single isomer, unassigned) [Compound 33]
4.82 | 1.4x | 4.70 | – | – | Cn1cnnc1C1(c2cccc(N3Cc4c(cc(CNC5(C)CCC5)cc4C(F)(F)F)C3=O)c2)CC2(CN(C3COC3)C2)C1 [Compound 199, 2-(3-(6-(4-methyl-4H-1,2,4-triazol-3-yl)-2-(oxetan-3-yl)-2-azaspiro[3.3]heptan-6-yl)phenyl)-6-(((1-methylcyclobutyl)amino)methyl)-4-(trifluoromethyl)isoindolin-1-one]
5.00 | 2.0x | 5.00 | – | – | Cn1cnnc1[C@@](O)(c1ccccc1)c1cccc(N2Cc3c(cc(CNC4(C)CCC4)cc3C(F)(F)F)C2=O)c1 (single isomer, unassigned) [Compound 155]
≤ 4.70 | 1.0x | 4.70 | – | – | Cn1cnnc1[C@@H](c1ccccc1)c1cccc(N2Cc3c(Cl)cc(CNC4(C)CCC4)cc3C2=O)c1 (single isomer, unassigned) [Compound 159]
5.04 | 2.1x | 4.70 | – | – | Cn1cnnc1[C@]1(c2cccc(N3Cc4c(cc(CNC5(C)CCC5)cc4C(F)(F)F)C3=O)c2)C[C@H]([S@+](C)[O-])C1 (single isomer, unassigned) [Compound 162]
5.17 | 3.0x | ≤ 4.70 | – | – | CCOC1CC([C@@H](c2cccc(N3Cc4c(cc(CNC5(C)CCC5)cc4C(F)(F)F)C3=O)c2)c2nncn2C)C1 (single isomer, unassigned) [Compound 266]
7.31 | 2.2x | 6.96 | – | – | Cn1cnnc1[C@H](CC1COC1)c1cccc(N2Cc3c(cc(CNC4(C)CCC4)cc3C(F)(F)F)C2=O)c1 [Compound 245, (R)-2-(3-(1-(4-methyl-4H-1,2,4-triazol-3-yl)-2-(oxetan-3-yl)ethyl)phenyl)-6-(((1-methylcyclobutyl)amino)methyl)-4-(trifluoromethyl)isoindolin-1-one]
7.49 | (7.4x) | 6.63 | – | – | CO[C@H]1C[C@](c2cc(OC3CCCC3)nc(N3Cc4c(cc(CNC5(C)CCC5)cc4C(F)(F)F)C3=O)c2)(c2nncn2C)C1 [Compound 79, 2-(6-(cyclopentyloxy)-4-((1R,3R)-3-methoxy-1-(4-methyl-4H-1,2,4-triazol-3-yl)cyclobutyl)pyridin-2-yl)-6-(((1-methylcyclobutyl)amino)methyl)-4-(trifluoromethyl)isoindolin-1-one]
≤ 4.70 | 1.0x | 4.70 | – | – | Cn1cnnc1[C@H](CC1(C)COC1)c1cccc(N2Cc3c(cc(CNC4(C)CCC4)cc3C(F)(F)F)C2=O)c1 [Compound 254, (R)-2-(3-(1-(4-methyl-4H-1,2,4-triazol-3-yl)-2-(3-methyloxetan-3-yl)ethyl)phenyl)-6-(((1-methylcyclobutyl)amino)methyl)-4-(trifluoromethyl)isoindolin-1-one]
7.96 | (0.56x) | 8.21 | – | – | CCNc1cc([C@]2(c3nncn3C)C[C@H](C)C2)cc(N2Cc3c(cc(CNC4(C)CCC4)cc3C(F)(F)F)C2=O)n1 [Compound 6, 2-(6-(ethylamino)-4-((1r,3r)-3-methyl-1-(4-methyl-4H-1,2,4-triazol-3-yl)cyclobutyl)-pyridin-2-yl)-6-(((1-methylcyclobutyl)amino)methyl)-4-(trifluoromethyl)isoindolin-1-one]
≤ 4.70 | 1.0x | 4.70 | – | – | Cc1cnnn1[C@H](c1cccc(N2Cc3c(cc(CNC4(C)CCC4)cc3C(F)(F)F)C2=O)c1)C1COC1 (single isomer, unassigned) [Compound 136]
– | 1.0x | 4.70 | – | – | Cn1cnnc1[C@@H](C[C@H]1COCCO1)c1cccc(N2Cc3c(cc(CNC4(C)CCC4)cc3C(F)(F)F)C2=O)c1 (single isomer, unassigned) [Compound 295]
6.06 | 1.0x | 6.05 | – | – | Cn1cnnc1[C@H](c1cccc(N2Cc3c(cc(CNC4(C)CCC4)cc3C(F)(F)F)C2=O)c1)C1CCCCC1 (single isomer, unassigned) [Compound 251]
≤ 4.70 | 1.0x | 4.70 | – | – | Cn1cnnc1[C@H](C[C@@H]1CCOC1)c1cccc(N2Cc3c(cc(CNC4(C)CCC4)cc3C(F)(F)F)C2=O)c1 [Compound 275, 2-(3-((R)-1-(4-methyl-4H-1,2,4-triazol-3-yl)-2-((R)-tetrahydrofuran-3-yl)ethyl)phenyl)-6-(((1-methylcyclobutyl)amino)methyl)-4-(trifluoromethyl)isoindolin-1-one]
5.85 | 3.6 x | 5.30 | – | – | Cn1cnnc1[C@H](c1ccccc1)c1cccc(N2Cc3c(Cl)cc(CNC4(C)CCC4)cc3C2=O)c1 (single isomer, unassigned) [Compound 158]
≤ 4.70 | 1x | 4.70 | – | – | Cn1cnnc1[C@@H](c1cccc(N2Cc3c(cc(CNC4(C)CCC4)cc3C(F)(F)F)C2=O)c1)n1ccnc1 (single isomer, unassigned) [Compound 344]
– | – | 6.60 | 7.54 | 8.6 | CO[C@H]1C[C@](c2cccc(N3Cc4c(cc(CNC5(C)COC5)cc4C(F)(F)F)C3=O)c2)(c2nncn2C)C1 [Compound 479, 2-(3-((1r,3r)-3-methoxy-1-(4-methyl-4H-1,2,4-triazol-3-yl)cyclobutyl)phenyl)-6-(((3-methyloxetan-3-yl)amino)methyl)-4-(trifluoromethyl)isoindolin-1-one]
≤ 4.70 | 1x | 4.70 | – | – | Cn1nnnc1[C@H](c1cccc(N2Cc3c(cc(CNC4(C)CCC4)cc3C(F)(F)F)C2=O)c1)C1COC1 (single isomer, unassigned) [Compound 349]
4.80 | 1.2x | 4.70 | – | – | Cn1cnnc1[C@]1(c2cccc(N3Cc4c(cc(CNC5(C)CCC5)cc4C(F)(F)F)C3=O)c2)C[C@H](S(C)(=O)=O)C1 [Compound 326, 2-(3-((1s,3s)-1-(4-methyl-4H-1,2,4-triazol-3-yl)-3-(methylsulfonyl)cyclobutyl)phenyl)-6-(((1-methylcyclobutyl)amino)methyl)-4-(trifluoromethyl)isoindolin-1-one]
8.18 | (1.5x) | 8.00 | – | – | C[C@H](NC1CCC1)c1cc2c(c(C(F)(F)F)c1)CN(c1cccc(C3(c4nncn4C)CC(F)(F)C3)c1)C2=O (single isomer, unassigned) [Compound 37]
5.51 | 1.2x | 5.44 | – | – | Cn1cnnc1[C@@H](c1cccc(N2Cc3c(cc(CNC4(C)CCC4)cc3C(F)(F)F)C2=O)c1)C1CCCCC1 [Compound 250, (R)-2-(3-(cyclohexyl(4-methyl-4H-1,2,4-triazol-3-yl)methyl)phenyl)-6-(((1-methylcyclobutyl)amino)methyl)-4-(trifluoromethyl)isoindolin-1-one]
≤ 4.70 | 1.0x | 4.70 | – | – | Cn1cnnc1[C@@H](CC1CCS(=O)(=O)CC1)c1cccc(N2Cc3c(cc(CNC4(C)CCC4)cc3C(F)(F)F)C2=O)c1 [Compound 287, (S)-2-(3-(2-(1,1-dioxidotetrahydro-2H-thiopyran-4-yl)-1-(4-methyl-4H-1,2,4-triazol-3-yl)ethyl)phenyl)-6-(((1-methylcyclobutyl)amino)methyl)-4-(trifluoromethyl)isoindolin-1-one]
